Experimental data published in patent publication US20250268859A1, “OXAFURAMINE, (1R)-N-ETHYL-1-[(2R)-OXOLAN-2-YL]-2-[…], HYDROCHLORIDE AND DERIVATIVES THEREOF FOR TREATING ALZHEIMER'S DISEASE (AD), […] […], […] WITH LEWY BODIES (DLB), MIXED […], FRON[…] DEGENERATION (FTLD), AND PARKINSON'S DISEASE (PD)” (NLS Pharmaceutics AG, priority 2021, published 2025).

Experiments:
M5 (h) = target: T1, M5 (h) (Homo sapiens, UniProt P08912); assay: Radioligand binding panel, M5 (h) (antagonist radioligand); conditions: % inhibition of control specific binding
T1 construct: Eurofins (contract panel)
T1 sequence (P08912 1-532): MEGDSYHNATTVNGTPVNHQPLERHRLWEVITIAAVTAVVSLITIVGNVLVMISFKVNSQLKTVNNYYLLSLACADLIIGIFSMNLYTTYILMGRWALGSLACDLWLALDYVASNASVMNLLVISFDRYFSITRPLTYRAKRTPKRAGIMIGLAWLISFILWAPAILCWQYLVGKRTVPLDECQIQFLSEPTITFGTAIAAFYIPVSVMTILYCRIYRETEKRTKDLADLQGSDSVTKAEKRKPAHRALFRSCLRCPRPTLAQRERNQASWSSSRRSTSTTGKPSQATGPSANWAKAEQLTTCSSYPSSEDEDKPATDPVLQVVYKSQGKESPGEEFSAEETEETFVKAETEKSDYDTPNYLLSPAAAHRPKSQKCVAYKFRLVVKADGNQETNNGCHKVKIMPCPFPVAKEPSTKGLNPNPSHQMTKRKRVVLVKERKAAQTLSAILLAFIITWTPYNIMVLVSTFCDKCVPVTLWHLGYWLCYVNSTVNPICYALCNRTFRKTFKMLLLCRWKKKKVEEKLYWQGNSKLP
Description: (§1) Oxafuramine is tested at 10^−5 M, calculated as a % inhibition of control specific binding of a radioactively labeled ligand specific for each target.
This binding profile panel was broadly defined with roughly an equal number of selective, central and peripheral therapeutically relevant targets, including native animal tissues, radioligands and specific enzymes involved in cell cycle regulation in accordance with Eurofins Standard Operating Procedure (www.eurofins.fr).
For radioligand binding experiments, the half maximal inhibitory concentration (IC50) and the half maximal effective concentration (EC50) values were determined (via computer software) by nonlinear regression analysis of the competition curves using Hill equation curve fitting. The inhibition constants (Ki) were calculated using the Cheng-Prusoff equation (Ki=IC50/(1+(L/KD)), where L is the concentration of radioligand in the assay, and KD is the affinity of the radioligand for the receptor.
The results are expressed as a % control specific binding ([measured specific binding/control specific binding]×100) and as a % inhibition of control specific binding (100−[(measured specific binding/control specific binding)×100]) obtained in the presence of the test compounds. […]

Relaxin-3 (RXFP3) (h) = target: T2, Relaxin-3 (RXFP3) (h) (Homo sapiens, UniProt Q9NSD7); assay: Relaxin-3 (RXFP3) (h) (agonist radioligand); assay type: binding
T2 sequence (Q9NSD7 1-469): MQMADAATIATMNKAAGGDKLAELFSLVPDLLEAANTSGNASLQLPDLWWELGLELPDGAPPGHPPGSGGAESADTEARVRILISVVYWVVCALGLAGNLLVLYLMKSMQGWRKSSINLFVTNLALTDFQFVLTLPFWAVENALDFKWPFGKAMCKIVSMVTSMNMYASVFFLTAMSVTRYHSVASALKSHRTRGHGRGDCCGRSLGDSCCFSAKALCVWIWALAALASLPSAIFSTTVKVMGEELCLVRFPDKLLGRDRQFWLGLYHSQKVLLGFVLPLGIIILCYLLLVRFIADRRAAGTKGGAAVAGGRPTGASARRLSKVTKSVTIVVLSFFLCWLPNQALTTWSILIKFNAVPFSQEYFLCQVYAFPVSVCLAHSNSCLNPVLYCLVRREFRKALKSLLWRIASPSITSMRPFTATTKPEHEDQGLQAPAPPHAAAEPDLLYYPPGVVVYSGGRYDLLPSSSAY
Description: as §1
The results are expressed as a % control specific binding ([measured specific binding/control specific binding]×100) and as a % inhibition of control specific binding (100−[(measured specific binding/control specific binding)×100]) obtained in the presence of the test compounds.
Results showing an inhibition (or stimulation) lower than 25% are not considered significant and mostly attributable to variability of the signal around the control level. […]
• 1. cAMP Hunter cell lines were expanded from freezer stocks according to standard procedures. • 2. Cells were seeded in a total volume of 20 μL into white walled, 384-well microplates and incubated at 37° C. for the appropriate time prior to testing. • 3. cAMP modulation was determined using the DiscoverX HitHunter cAMP XS+ assay. […]
[formula] • 6. For Gi positive allosteric mode assays, percentage modulation is calculated using the following formula: % Modulation=100%×(1−(mean RLU of test sample−mean RLU of MAX control) /(mean RLU of EC20 control−mean RLU of MAX control)). • 7. […]

With `CCN[C@H](Cc1ccccc1)[C@H]1CCCO1` [Oxafuramine, (1R)—N-ethyl-1-[(2R)-oxolan-2-yl]-2-phenylethanamine] as the compound, how does the inhibition at 10 µM (M5 (h); 10^−5 M) read?
The inhibition at 10 µM was about 25%.

What about the “% Inhibition at 10^−5M, M5 (h) (antagonist radioligand)” value (M5 (h)) of the same compound?
The value was 25.4%.

What about the “% Inhibition at 10^−5M, Relaxin-3 (RXFP3) (h) (agonist radioligand)” value (Relaxin-3 (RXFP3) (h)) of the same compound?
Its value is “weakly target”.

And the inhibition at 10 µM (Relaxin-3 (RXFP3) (h); 10^−5 M)?
The inhibition at 10 µM was 16.5%.
